Values of other authors in US6420361B1, “Soil pesticide” (priority 1999, dated 2002).

CN1CSC(=S)N(C)C1 [TDTT, tetrahydro-3,5-dimethyl-2H-1,3,5-thiadiazine-2-thione]
Solubility and stability in commonly used agricultural solvents or carriers: not very soluble or stable
Concentration limit in liquid formulation (applied as a liquid formulation): less than 15 % by weight
